Measured values taken from ChEMBL document CHEMBL1143657, “Saucerneol B derivatives as human acyl-CoA: cholesterol acyltransferase inhibitors” (Bioorg Med Chem Lett, 2005).

Tests used:
[1] = target: T1, Sterol O-acyltransferase 2 (Homo sapiens, UniProt O75908); experiment: In vitro inhibitory concentration against human Acyl coenzyme A:cholesterol acyltransferase 2 expressed in Hi5 cells; set-up: species or system BTI-TN-5B1-4
T1 sequence (O75908 whole entry): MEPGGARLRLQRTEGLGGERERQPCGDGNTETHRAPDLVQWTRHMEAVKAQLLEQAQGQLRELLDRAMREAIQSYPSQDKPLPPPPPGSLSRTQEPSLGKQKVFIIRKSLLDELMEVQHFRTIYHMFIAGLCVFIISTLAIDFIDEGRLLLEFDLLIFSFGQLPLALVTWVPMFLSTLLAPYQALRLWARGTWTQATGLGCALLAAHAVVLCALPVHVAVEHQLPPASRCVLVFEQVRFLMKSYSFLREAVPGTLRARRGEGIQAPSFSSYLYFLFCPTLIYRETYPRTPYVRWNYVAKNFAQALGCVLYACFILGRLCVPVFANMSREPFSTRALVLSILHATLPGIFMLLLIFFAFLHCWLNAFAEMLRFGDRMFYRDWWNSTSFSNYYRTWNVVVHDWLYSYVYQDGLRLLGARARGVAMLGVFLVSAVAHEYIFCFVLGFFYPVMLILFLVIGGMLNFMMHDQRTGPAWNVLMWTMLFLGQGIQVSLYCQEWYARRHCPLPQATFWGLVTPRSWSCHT

[2] = target: T2, Sterol O-acyltransferase 2 (Homo sapiens) (UniProt O75908); experiment: In vitro inhibition of human Acyl coenzyme A:cholesterol acyltransferase 2 expressed in Hi5 cells at 125 uM; details: BTI-TN-5B1-4
T2 sequence (whole entry): T1 sequence (O75908 whole entry)

[3] = target: T3, Sterol O-acyltransferase 1 (Homo sapiens) (UniProt P35610); experiment: In vitro inhibition of human Acyl coenzyme A:cholesterol acyltransferase 1 expressed in Hi5 cells; details: BTI-TN-5B1-4, concentration not given here
T3 sequence (whole entry): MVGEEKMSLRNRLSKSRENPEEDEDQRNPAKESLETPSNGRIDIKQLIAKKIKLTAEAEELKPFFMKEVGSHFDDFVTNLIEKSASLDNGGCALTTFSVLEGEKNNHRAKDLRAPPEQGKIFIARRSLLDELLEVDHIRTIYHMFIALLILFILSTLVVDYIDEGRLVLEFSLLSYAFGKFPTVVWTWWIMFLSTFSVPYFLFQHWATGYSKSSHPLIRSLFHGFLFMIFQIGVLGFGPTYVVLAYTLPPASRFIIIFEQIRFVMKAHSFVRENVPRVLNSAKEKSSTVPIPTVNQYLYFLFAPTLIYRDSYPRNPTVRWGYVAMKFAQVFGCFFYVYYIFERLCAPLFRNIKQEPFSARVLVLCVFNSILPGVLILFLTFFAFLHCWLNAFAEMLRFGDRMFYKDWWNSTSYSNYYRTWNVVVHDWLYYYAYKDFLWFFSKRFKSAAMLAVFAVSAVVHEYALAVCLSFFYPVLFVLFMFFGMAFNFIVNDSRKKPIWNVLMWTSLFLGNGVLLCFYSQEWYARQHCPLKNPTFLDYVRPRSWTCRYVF

SMILES | IC50 [1] | inhibition [2] | inhibition [3]
COc1ccc(C(O)C(C)Oc2ccc([C@H]3O[C@H](c4ccc(OC(C)C(O)c5ccc(OC)c(OC)c5)c(OC)c4)[C@H](C)[C@H]3C)cc2OC)cc1OC (some centres not stated) | 8 µM | – | –
CCCCCCOC(c1ccc2c(c1)OCO2)C(OC)Oc1ccc([C@H]2O[C@@H](c3ccc(OC)c(OC)c3)[C@@H](C)[C@H]2C)cc1OC (some centres not stated) | – | 33% | –
CCCCOC(c1ccc2c(c1)OCO2)C(OC)Oc1ccc([C@H]2O[C@@H](c3ccc(OC)c(OC)c3)[C@@H](C)[C@H]2C)cc1OC (some centres not stated) | – | 28% | –
CCCCCCCCOC(c1ccc2c(c1)OCO2)C(OC)Oc1ccc([C@H]2O[C@@H](c3ccc(OC)c(OC)c3)[C@@H](C)[C@H]2C)cc1OC (some centres not stated) | – | 19% | 44%
CCCOC(c1ccc2c(c1)OCO2)C(OC)Oc1ccc([C@H]2O[C@@H](c3ccc(OC)c(OC)c3)[C@@H](C)[C@H]2C)cc1OC (some centres not stated) | – | 33% | –
CCCCCCCOC(c1ccc2c(c1)OCO2)C(OC)Oc1ccc([C@H]2O[C@@H](c3ccc(OC)c(OC)c3)[C@@H](C)[C@H]2C)cc1OC (some centres not stated) | – | 26% | –
CCCCCOC(c1ccc2c(c1)OCO2)C(OC)Oc1ccc([C@H]2O[C@@H](c3ccc(OC)c(OC)c3)[C@@H](C)[C@H]2C)cc1OC (some centres not stated) | – | 33% | –
CCCCCCCCCOC(c1ccc2c(c1)OCO2)C(OC)Oc1ccc([C@H]2O[C@@H](c3ccc(OC)c(OC)c3)[C@@H](C)[C@H]2C)cc1OC (some centres not stated) | – | 10% | 25%
CCOC(c1ccc2c(c1)OCO2)C(OC)Oc1ccc([C@H]2O[C@@H](c3ccc(OC)c(OC)c3)[C@@H](C)[C@H]2C)cc1OC (some centres not stated) | – | 29% | –
COc1ccc([C@@H]2O[C@H](c3ccc(OC(OC)C(OC)c4ccc5c(c4)OCO5)c(OC)c3)[C@H](C)[C@@H]2C)cc1OC (some centres not stated) | – | 45% | –
